In patent US20260337193A1, “SMALL MOLECULE INHIBITORS OF UBIQUITIN SPECIFIC PROTEASE 1 (USP1) AND USES THEREOF” (Insilico Medicine IP Limited, priority 2023, published 2026):

Columns and labels:
[1] = target: T1, Human recombinant USP1/UAF1 (Homo sapiens, UniProt O94782); assay: Enzymatic assay: USP1/UAF1 deubiquitination of Ubiquitin Rhodamine 110 (kinetic fluorescence); type: biochemical; conditions: 2 nM USP1/UAF1, 15 min preincubation at RT, HEPES pH 8.0, 500 nM Ubiquitin Rhodamine 110
T1 construct: purchased R & D E-568-050; host or cells: baculovirus infected Sf21 cells
T1 sequence (O94782 whole entry): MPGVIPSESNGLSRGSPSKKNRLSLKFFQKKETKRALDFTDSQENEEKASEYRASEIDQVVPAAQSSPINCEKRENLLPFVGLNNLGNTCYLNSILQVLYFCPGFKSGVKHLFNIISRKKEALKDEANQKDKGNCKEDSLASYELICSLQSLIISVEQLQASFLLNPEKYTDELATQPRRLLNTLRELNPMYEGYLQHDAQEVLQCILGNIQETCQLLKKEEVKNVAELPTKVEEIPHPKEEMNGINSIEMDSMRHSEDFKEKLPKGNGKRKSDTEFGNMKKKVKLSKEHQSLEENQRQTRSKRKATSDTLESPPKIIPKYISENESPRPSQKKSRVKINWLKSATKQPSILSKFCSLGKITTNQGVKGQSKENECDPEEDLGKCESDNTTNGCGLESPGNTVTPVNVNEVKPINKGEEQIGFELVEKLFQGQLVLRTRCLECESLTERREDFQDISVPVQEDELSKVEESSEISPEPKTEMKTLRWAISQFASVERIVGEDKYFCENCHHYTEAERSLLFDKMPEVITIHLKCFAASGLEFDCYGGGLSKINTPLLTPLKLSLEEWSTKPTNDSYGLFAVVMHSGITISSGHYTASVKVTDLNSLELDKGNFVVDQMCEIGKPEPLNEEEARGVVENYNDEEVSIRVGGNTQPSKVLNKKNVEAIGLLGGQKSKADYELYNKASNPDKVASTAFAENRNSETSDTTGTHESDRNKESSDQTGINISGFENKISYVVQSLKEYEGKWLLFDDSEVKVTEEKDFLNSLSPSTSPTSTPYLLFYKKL
T1 sequence (Q8TAF3 whole entry partner): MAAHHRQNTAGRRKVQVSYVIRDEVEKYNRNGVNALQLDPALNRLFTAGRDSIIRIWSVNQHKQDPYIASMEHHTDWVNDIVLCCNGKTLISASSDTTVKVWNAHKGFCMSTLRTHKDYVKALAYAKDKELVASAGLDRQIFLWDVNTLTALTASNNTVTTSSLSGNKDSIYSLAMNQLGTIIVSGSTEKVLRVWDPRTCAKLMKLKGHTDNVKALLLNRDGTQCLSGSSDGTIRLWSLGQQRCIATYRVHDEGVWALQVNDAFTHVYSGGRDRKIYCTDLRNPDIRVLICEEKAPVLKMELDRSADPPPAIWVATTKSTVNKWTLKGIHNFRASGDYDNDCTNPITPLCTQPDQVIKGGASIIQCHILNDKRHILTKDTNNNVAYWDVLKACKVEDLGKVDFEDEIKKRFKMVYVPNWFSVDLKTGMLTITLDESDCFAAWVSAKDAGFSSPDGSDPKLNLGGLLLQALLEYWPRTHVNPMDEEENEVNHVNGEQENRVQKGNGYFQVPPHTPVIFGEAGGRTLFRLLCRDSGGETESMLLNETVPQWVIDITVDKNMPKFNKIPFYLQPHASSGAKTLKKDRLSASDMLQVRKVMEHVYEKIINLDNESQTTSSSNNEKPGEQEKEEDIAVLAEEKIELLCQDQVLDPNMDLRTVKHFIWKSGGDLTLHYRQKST
Protocol: Example A1: Enzymatic Assay
Human recombinant USP1/UAF1 expressed in baculovirus infected Sf21 cells were used (R & D, E-568-050). Test compound and/or vehicle was incubated with 2 nM of USP1/UAF1 in modified HEPES buffer pH 8.0 for 15 minutes at RT. The reaction was initiated by addition of 500 nM of Ubiquitin Rhodamine 110 (R & D, U-555-050) for kinetic reading. Slope change of fluorescence intensity was read spectrofluorimetrically at 485 nm/535 nm. Dose response of test compounds or reference compound ML-323 was analyzed by nonlinear regression of GraphPad prism software.

MDA-MB-436 cells = assay: MDA-MB-436 breast cancer cell proliferation assay (CellTiter-Glo); type: cell-based; conditions: Homo sapiens, 168 h, 7 days, 37° C.
Protocol: Example A2: MDA-MB-436 Breast Cancer Cell Culture
MDA-MB-436 cells were grown in Leibovitz's L-15 medium with 10 μg/ml insulin, 16 μg/ml glutathione, 10% FBS. Cells were passaged at subconfluence after trypsinization and maintained in incubators at 37° C. in a humidified atmosphere with 5% CO2.
Example A3: MDA-MB-436 Breast Cancer Cell Proliferation Assay
Cell proliferation was determined using CellTiter-Glo® Luminescent Cell Viability Assay (Promega, #G7573). MDA-MB-436 cells were seeded in 384-well plates and allowed to attach for 24 h. Compounds were added into 384-well plate by ECHO, and incubated at 37° C. in a humidified atmosphere with 5% CO2. After 7 days, CellTiter-Glo® was added into 384 well plates, contents were mixed on an orbital shaker at 400 g for 2 min before centrifuging the plate for 2 min at 1000 rpm. After incubation at RT for 30 min, luminescence was read on envision.

Row | IC50 [1] [µM] | IC50 (MDA-MB-436 cells) [µM] | SMILES
1 | 0.05 to 1 | 0.05 to 1 | COc1ncnc(C2CC2)c1-c1nccc2c1CN(c1ccc(-c3nc(C(F)(F)F)cn3C)cn1)CC2 [Compound 2, 8-(4-cyclopropyl-6-methoxypyrimidin-5-yl)-2-(5-(1-methyl-4-(trifluoromethyl)-1H-imidazol-2-yl)pyridin-2-yl)-1,2,3,4-tetrahydro-2,7-naphthyridine]
2 | 1 to 10 |  | COc1ncnc(C2CC2)c1-c1nn(C)c2c1CN(c1ccc(-c3nc(C(F)(F)F)cn3C)cn1)C2 [Compound 5, 3-(4-cyclopropyl-6-methoxypyrimidin-5-yl)-1-methyl-5-(5-(1-methyl-4-(trifluoromethyl)-1H-imidazol-2-yl)pyridin-2-yl)-1,4,5,6-tetrahydropyrrolo[3,4-c]pyrazole]
3 | 0.05 to 1 | < 0.05 | COc1ncnc(C2CC2)c1-n1nc(C)c2c1CN(c1ccc(-c3nc(C(F)(F)F)cn3C)cn1)CC2 [Compound 11, 1-(4-cyclopropyl-6-methoxypyrimidin-5-yl)-3-methyl-6-(5-(1-methyl-4-(trifluoromethyl)-1H-imidazol-2-yl)pyridin-2-yl)-4,5,6,7-tetrahydro-1H-pyrazolo[3,4-c]pyridine]
4 | 0.05 to 1 | < 0.05 | CCn1cc(C(F)(F)F)nc1-c1ccc(N2CCc3c(C)nn(-c4c(OC)ncnc4C4CC4)c3C2)nc1 [Compound 12, 1-(4-cyclopropyl-6-methoxypyrimidin-5-yl)-6-(5-(1-ethyl-4-(trifluoromethyl)-1H-imidazol-2-yl)pyridin-2-yl)-3-methyl-4,5,6,7-tetrahydro-1H-pyrazolo[3,4-c]pyridine]
5 | 0.05 to 1 | 0.05 to 1 | COc1ncnc(C2CC2)c1-n1nc(C)c2c1CN(c1ccc(-c3nc(C(F)(F)F)cn3C(C)C)cn1)CC2 [Compound 13, 1-(4-cyclopropyl-6-methoxypyrimidin-5-yl)-6-(5-(1-isopropyl-4-(trifluoromethyl)-1H-imidazol-2-yl)pyridin-2-yl)-3-methyl-4,5,6,7-tetrahydro-1H-pyrazolo[3,4-c]pyridine]
6 | 0.05 to 1 | 0.05 to 1 | COc1ncnc(C2CC2)c1-n1nc(C)c2c1CN(c1ccc(-c3nc(C(F)(F)F)cn3C)nc1)CC2 [Compound 14, 1-(4-cyclopropyl-6-methoxypyrimidin-5-yl)-3-methyl-6-(6-(1-methyl-4-(trifluoromethyl)-1H-imidazol-2-yl)pyridin-3-yl)-4,5,6,7-tetrahydro-1H-pyrazolo[3,4-c]pyridine]
7 | < 0.05 | < 0.05 | COc1ncnc(C2CC2)c1-n1nc(C)c2c1CN(c1cnc(-c3nc(C(F)(F)F)cn3C)cn1)CC2 [Compound 15, 1-(4-cyclopropyl-6-methoxypyrimidin-5-yl)-3-methyl-6-(5-(1-methyl-4-(trifluoromethyl)-1H-imidazol-2-yl)pyrazin-2-yl)-4,5,6,7-tetrahydro-1H-pyrazolo[3,4-c]pyridine]
8 | 0.05 to 1 | 0.05 to 1 | COc1ncnc(C2CC2)c1-n1nc(C)c2c1CN(c1ncc(-c3nc(C(F)(F)F)cn3C)cn1)CC2 [Compound 16, 1-(4-cyclopropyl-6-methoxypyrimidin-5-yl)-3-methyl-6-(5-(1-methyl-4-(trifluoromethyl)-1H-imidazol-2-yl)pyrimidin-2-yl)-4,5,6,7-tetrahydro-1H-pyrazolo[3,4-c]pyridine]
9 | < 0.05 | < 0.05 | COc1ncnc(C2CC2)c1-n1nc(C)c2c1CN(c1ccc(-c3nc(C(F)(F)F)cn3C)c(F)c1)CC2 [Compound 17, 1-(4-cyclopropyl-6-methoxypyrimidin-5-yl)-6-(3-fluoro-4-(1-methyl-4-(trifluoromethyl)-1H-imidazol-2-yl)phenyl)-3-methyl-4,5,6,7-tetrahydro-1H-pyrazolo[3,4-c]pyridine]
10 | 0.05 to 1 | < 0.05 | COc1ncnc(C2CC2)c1-n1nc(C)c2c1CN(c1ccc(-c3nc(C(F)(F)F)cn3C)cc1F)CC2 [Compound 18, 1-(4-cyclopropyl-6-methoxypyrimidin-5-yl)-6-(2-fluoro-4-(1-methyl-4-(trifluoromethyl)-1H-imidazol-2-yl)phenyl)-3-methyl-4,5,6,7-tetrahydro-1H-pyrazolo[3,4-c]pyridine]
11 | 0.05 to 1 | 0.05 to 1 | COc1ncnc(C2CC2)c1-n1nc(C)c2c1CN(c1ccc(-n3nc(C(F)(F)F)cc3C)cn1)CC2 [Compound 20, 1-(4-cyclopropyl-6-methoxypyrimidin-5-yl)-3-methyl-6-(5-(5-methyl-3-(trifluoromethyl)-1H-pyrazol-1-yl)pyridin-2-yl)-4,5,6,7-tetrahydro-1H-pyrazolo[3,4-c]pyridine]
12 | 0.05 to 1 | 0.05 to 1 | COc1ncnc(C2CC2)c1-n1nc(C)c2c1CN(c1ncc(-c3nc(C(F)(F)F)cn3C)s1)CC2 [Compound 21, 2-(1-(4-cyclopropyl-6-methoxypyrimidin-5-yl)-3-methyl-1,4,5,7-tetrahydro-6H-pyrazolo[3,4-c]pyridin-6-yl)-5-(1-methyl-4-(trifluoromethyl)-1H-imidazol-2-yl)thiazole]

Second part, the compound before the results:

Row | SMILES | IC50 [1] [µM] | IC50 (MDA-MB-436 cells) [µM]
13 | CC(C)c1ncccc1-c1ncnc2c1CN(c1ccc(-c3nc(C(F)(F)F)cn3C)cc1)CC2 [Compound 1, 4-(2-isopropylpyridin-3-yl)-6-(4-(1-methyl-4-(trifluoromethyl)-1H-imidazol-2-yl)phenyl)-5,6,7,8-tetrahydropyrido[4,3-d]pyrimidine] | 1 to 10 | 1 to 10
14 | COc1ncnc(C2CC2)c1-c1nnn2c1CN(c1ccc(-c3nc(C(F)(F)F)cn3C)cc1)CC2 [Compound 3, 3-(4-cyclopropyl-6-methoxypyrimidin-5-yl)-5-(4-(1-methyl-4-(trifluoromethyl)-1H-imidazol-2-yl)phenyl)-4,5,6,7-tetrahydro-[1,2,3]triazolo[1,5-a]pyrazine] | 0.05 to 1 | 0.05 to 1
15 | COc1ncnc(C2CC2)c1-c1nn(C)c2c1CN(c1ncc(-c3nc(C(F)(F)F)cn3C)s1)C2 [Compound 4, 2-(3-(4-cyclopropyl-6-methoxypyrimidin-5-yl)-1-methyl-4,6-dihydropyrrolo[3,4-c]pyrazol-5(1H)-yl)-5-(1-methyl-4-(trifluoromethyl)-1H-imidazol-2-yl)thiazole] | 0.05 to 1 | 0.05 to 1
16 | COc1ncnc(C2CC2)c1-c1nn(C)c2c1CN(c1ccc(-c3nc(C(F)(F)F)cn3C)nc1)C2 [Compound 6, 3-(4-cyclopropyl-6-methoxypyrimidin-5-yl)-1-methyl-5-(6-(1-methyl-4-(trifluoromethyl)-1H-imidazol-2-yl)pyridin-3-yl)-1,4,5,6-tetrahydropyrrolo[3,4-c]pyrazole] | 1 to 10 | 
17 | COc1ncnc(C2CC2)c1-c1nn(C)c2c1CN(c1ccc(-c3nc(C(F)(F)F)cn3C)cc1)C2 [Compound 7, 3-(4-cyclopropyl-6-methoxypyrimidin-5-yl)-1-methyl-5-(4-(1-methyl-4-(trifluoromethyl)-1H-imidazol-2-yl)phenyl)-1,4,5,6-tetrahydropyrrolo[3,4-c]pyrazole] | 0.05 to 1 | 
18 | COc1ncnc(C2CC2)c1-c1nn(C)c2c1CN(c1ncc(-c3nc(C(F)(F)F)cn3C(C)C)s1)C2 [Compound 8, 2-(3-(4-cyclopropyl-6-methoxypyrimidin-5-yl)-1-methyl-4,6-dihydropyrrolo[3,4-c]pyrazol-5(1H)-yl)-5-(1-isopropyl-4-(trifluoromethyl)-1H-imidazol-2-yl)thiazole] | 0.05 to 1 | 0.05 to 1
19 | CC(C)c1ncccc1-c1nn(C)c2c1CN(c1ncc(-c3nc(C(F)(F)F)cn3C)s1)C2 [Compound 9, 2-(3-(2-isopropylpyridin-3-yl)-1-methyl-4,6-dihydropyrrolo[3,4-c]pyrazol-5(1H)-yl)-5-(1-methyl-4-(trifluoromethyl)-1H-imidazol-2-yl)thiazole] | 0.05 to 1 | 
20 | COc1ncnc(C2CC2)c1-c1nn(C)c2c1CN(c1cnc(-c3nc(C(F)(F)F)cn3C)s1)C2 [Compound 10, 5-(3-(4-cyclopropyl-6-methoxypyrimidin-5-yl)-1-methyl-4,6-dihydropyrrolo[3,4-c]pyrazol-5(1H)-yl)-2-(1-methyl-4-(trifluoromethyl)-1H-imidazol-2-yl)thiazole] | 0.05 to 1 | 0.05 to 1
21 | Cc1nn(-c2ccccc2C(C)C)c2c1CCN(c1ccc(-c3nc(C(F)(F)F)cn3C)cn1)C2 [Compound 19, 1-(2-isopropylphenyl)-3-methyl-6-(5-(1-methyl-4-(trifluoromethyl)-1H-imidazol-2-yl)pyridin-2-yl)-4,5,6,7-tetrahydro-1H-pyrazolo[3,4-c]pyridine] | < 0.05 | < 0.05
22 | Cc1nn(-c2ccccc2C(C)C)c2c1CN(c1ncc(-c3nc(C(F)(F)F)cn3C)s1)C2 [Compound 22, 2-(1-(2-isopropylphenyl)-3-methyl-4,6-dihydropyrrolo[3,4-c]pyrazol-5(1H)-yl)-5-(1-methyl-4-(trifluoromethyl)-1H-imidazol-2-yl)thiazole] | 0.05 to 1 | 1 to 10
